{
  "source": "patent US20200353027A1",
  "about": "“A LILAC GINKGO BRICK TEA WITH LIPID LOWERING AND LIVER PROTECTION ACTIVITIES AND A METHOD OF PREPARING THE SAME” (SHAANXI UNIVERSITY OF SCIENCE AND TECHNOLOGY, priority 2019, published 2020)",
  "system": "mice given ethanol alcohol (alcohol's damage to the liver)",
  "assay": "Liver protection in mice given ethanol alcohol",
  "format": "in vivo, Kunming mice",
  "settings": "Tiopronin 50 mg/kg/day, ethanol 3 g/kg/day, after 25 days, blood",
  "procedure": "To study the liver protection effect of the Lilac Ginkgo Brick Tea of Example 1, the following experiments were conduct.\nMale Kunming mice, 50 SPF grades, 5 weeks old, 30-35 g, were randomly divided into Blank Group, Control Group, Tiopronin Positive Control Group, Low Dosage Group, and High Dosage Group. 100 g of Lilac Ginkgo Brick Tea was boiled in 1 L water, filtered, and concentrated to 50 mL concentrated Lilac Ginkgo Brick Tea solution. Blank Group and Control Group were given water and regular food; Tiopronin Group was given 50 mg/kg/day Tiopronin; and Low Dosage Group and High Dosage Group were given 20 mL/kg/day and 50 mL/kg/day concentrated Lilac Ginkgo Brick Tea solution, respectively, and regular food. Control Group, Tiopronin Positive Control Group, Low Dosage Group, and High Dosage Group were given 3 g/kg/day (0.01 mL/g) ethanol alcohol. Blank Group was given equal volume water. After 25 days, the mice were fasted for 2 hours, and blood samples were taken to determine alanine aminotransferase (ALT), aspartate aminotransferase (AST), and triglyceride (TG) levels.",
  "data": [
    {"smiles": "CC(S)C(=O)NCC(=O)O", "note": "(stereo not drawn) [Tiopronin]", "values": [
      {"measurement": "ALT (alanine aminotransferase)", "result": "64.80 ± 10.47", "unit": "U/L"},
      {"measurement": "AST (aspartate aminotransferase)", "result": "140.39 ± 20.92", "unit": "U/L"},
      {"measurement": "TG (triglyceride)", "result": "1.295 ± 0.43", "unit": "mmol/L"}
    ]}
  ]
}
